Data published in US20230096663A1, “FARNESOID X RECEPTOR MODULATING COMPOUNDS AND METHODS OF USING THE SAME” (Inorbit Therapeutics AB, priority 2020, published 2023).
Where two headings read alike, the source gives them in different places.

What was measured:
[1] = system: FXR related genes (BSEP, SHP) in primary human hepatocytes; assay: Gene expression in human primary hepatocytes (BSEP, SHP); assay type: cell-based; conditions: 24 hours incubation
Protocol: The test compound was dissolved in buffer to give a 10 mM stock solution. The compound was serially diluted to the desired concentrations and then incubated with human primary hepatocytes for 24 hours at 37° C. in a CO2 incubator. After incubation, the media was removed and the RNA harvested using the Trizol-CHCl3 method and quantified using Nano drop. The RNA was then Reverse Transcribed to cDNA using a superscript vilo cDNA synthesis kit. The cDNA with respective Taqman primers, master mix are then amplified using quantitative RT-PCR system. […] The compounds of examples 2 and 3 upregulate FXR related and disease relevant genes on incubation with primary human hepatocytes. […] It is a uni-directional, ATP-dependent efflux transporter that plays an important role in the elimination of bile salts from the hepatocyte into the bile canaliculi for export into the gastrointestinal tract. FXR also induces the expression of small heterodimer partner (SHP) which controls a complex set of genes in multiple metabolic pathways. It reduces the expression of CYP7A1, a liver-specific enzyme that catalyzes the first and rate-limiting step in one of the two pathways for bile acid biosynthesis.

[2] = Compound exposure in plasma and liver of HFHC fed male mice; assay type: in vivo; conditions: C57BL/6J, mouse, oral
[3] = system: HFHC fed male C57BL/6 mice; assay: In-vivo efficacy in high fat high cholesterol diet (HFHC) fed male C57BL/6 mice; conditions: oral, 3 mg/kg BID, 3 mg/kg QD and 10 mg/kg BID, after 28 days
Protocol: C57BL/6J male mice were purchased at the age of 8 weeks. After an acclimation period of 1 week, animals were maintained on high fat high cholesterol diet (Research diets) with 60% kcal from fat plus 0.5% (w/w) extra cholesterol (Research diet, D02051401) for a period of 4 weeks. Age matched control animals (n=6) were maintained on normal chow. Mice were dosed with vehicle, test compounds and GW4064 morning (7.00 AM) and evening (5:00 PM) from day 0 to 27. At 28th day, animals were dosed at 7:00 AM and kept on fasting for next 4 hours before blood and tissues collection. Plasma samples separated from collected blood were stored at −20° C. immediately for estimation analysis. The samples were analyzed using the Siemens Dimension RxL Max Clinical chemistry analyzer.
Right liver lobe was used for the test compounds exposure, triglyceride and cholesterol estimation. Liver tissues were dissected, weighed and snap frozen and stored at −80° C. for further analysis of hepatic triglyceride, cholesterol and compound exposure. In brief, stored tissues were thawed to room temperature and triglycerides were extracted by homogenizing 25 mg of liver tissues in 1 ml of 5% Triton X100 (Lot No. 61K01741-Sigma Aldrich) in water. Homogenized tissues were slowly heated to 80° C. in water bath for 5 minutes. The samples were cooled down and again heated to solubilize all the triglycerides into solution. The samples were centrifuged for 5 minutes at 4000 RPM and supernatant was collected for quantification^3 using commercially available kit from ERBA (Lot No. B061832).
Homogenized samples were centrifuge at 13000 g for 10 minutes to remove insoluble material. The organic phase was separated into new tube and air dried at 50° C. to remove chloroform. Thereafter, samples were vacuumed for 30 minutes to remove residue organic solvent. Dried lipids were dissolved in 200 μL of cholesterol assay buffer (provided with Sigma cholesterol assay kit Lot No. B2J210603V), sonicated for 20 minutes and vortexed until mixture was homogenous as mentioned in kit protocol. Samples were diluted with cholesterol assay buffer at (1:10) ratio to fit in standard curve and finally 50 μL of diluted samples were used for the assay.
Compound levels were also measured in the plasma and liver to understand its distribution profile.

SMILES: Cc1cc(S(=O)[O-])cc2sc(N3[C@@H]4CC[C@H]3C[C@@H](OCc3c(-c5ccccc5OC(F)(F)F)noc3C3CC3)C4)nc12.[Na+] [Example 3, Sodium 2-(3-((5-cyclopropyl-3-(2-(trifluoromethoxy)phenyl)isoxazol-4-yl)methoxy)-8-azabicyclo[3.2.1]octan-8-yl)-4-methylbenzo[d]thiazole-6-sulfinate]
- Expression of FXR related and disease relevant genes (BSEP, SHP) [1]: upregulate
- concentration at 4 h ([2]; liver, 3 mg/kg, 3 mg/kg BID oral, 4 hours after last dose on day 28, read-out: Mean compound exposure, Liver): 88.9 ng/g
- concentration at 4 h ([2]; liver, 10 mg/kg, 10 mg/kg BID oral, 4 hours after last dose on day 28, read-out: Mean compound exposure, Liver): 198 ng/g
- concentration at 4 h ([2]; liver, 10 mg/kg, 10 mg/kg QD oral, 4 hours after last dose on day 28, read-out: Mean compound exposure, Liver): 176 ng/g
- concentration at 4 h ([2]; plasma, 3 mg/kg, 3 mg/kg BID oral, 4 hours after last dose on day 28, read-out: Mean compound exposure, Plasma): 3.7 ng/mL
- concentration at 4 h ([2]; plasma, 10 mg/kg, 10 mg/kg BID oral, 4 hours after last dose on day 28, read-out: Mean compound exposure, Plasma): 11.5 ng/mL
- concentration at 4 h ([2]; plasma, 10 mg/kg, 10 mg/kg QD oral, 4 hours after last dose on day 28, read-out: Mean compound exposure, Plasma): 5.9 ng/mL
- Cholesterol levels in the liver [3]: reductions
- Cholesterol levels in the plasma [3]: reductions
- Liver triglycerides [3]: reductions
